Data published in the supplement of paper PMC10307832.

Experiments:
Experiment in all cases: relative viability (nuclei count vs DMSO), 5 days (fraction); higher = more cells survive
Bexarotene + Alpelisib = compound: C=C(c1ccc(C(=O)O)cc1)c1cc2c(cc1C)C(C)(C)CCC2(C)C [Bexarotene] + Cc1nc(NC(=O)N2CCC[C@H]2C(N)=O)sc1-c1ccnc(C(C)(C)C(F)(F)F)c1 [Alpelisib] (partner 2 µM)
Outline: (§1)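 Relative viability is defined as nuclei in treated wells over nuclei in vehicle wells. Duplicate plates were run and medians reported. Lung cancer cell lines in 1536-well plates were dosed by pin tool one day after seeding, with one drug or with a fixed anchor-drug dose plus five library-drug doses (not always all listed) in √10 steps, and nuclei were counted after 5 days.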

Bexarotene + Palbociclib = compound: C=C(c1ccc(C(=O)O)cc1)c1cc2c(cc1C)C(C)(C)CCC2(C)C [Bexarotene] + CC(=O)c1c(C)c2cnc(Nc3ccc(N4CCNCC4)cn3)nc2n(C2CCCC2)c1=O [Palbociclib] (partner 0.5 µM)
Outline: as §1

Bexarotene + Olaparib = compound: C=C(c1ccc(C(=O)O)cc1)c1cc2c(cc1C)C(C)(C)CCC2(C)C [Bexarotene] + O=C(c1cc(Cc2n[nH]c(=O)c3ccccc23)ccc1F)N1CCN(C(=O)C2CC2)CC1 [Olaparib] (partner 8 µM)
Outline: as §1

Bexarotene + Pemetrexed = compound: C=C(c1ccc(C(=O)O)cc1)c1cc2c(cc1C)C(C)(C)CCC2(C)C [Bexarotene] + Nc1nc2[nH]cc(CCc3ccc(C(=O)N[C@@H](CCC(=O)O)C(=O)O)cc3)c2c(=O)[nH]1 [Pemetrexed] (partner 0.2 µM)
Outline: as §1

Row | Cell Line | relative viability (Bexarotene + Alpelisib; first compound 0.08 µM) | relative viability (Bexarotene + Alpelisib; first compound 0.253 µM) | relative viability (Bexarotene + Alpelisib; first compound 0.8 µM) | relative viability (Bexarotene + Alpelisib; first compound 2.53 µM) | relative viability (Bexarotene + Alpelisib; first compound 8 µM) | relative viability (Bexarotene + Palbociclib; first compound 0.08 µM) | relative viability (Bexarotene + Palbociclib; first compound 0.253 µM) | relative viability (Bexarotene + Palbociclib; first compound 0.8 µM) | relative viability (Bexarotene + Palbociclib; first compound 2.53 µM) | relative viability (Bexarotene + Palbociclib; first compound 8 µM) | relative viability (Bexarotene + Olaparib; first compound 0.08 µM) | relative viability (Bexarotene + Olaparib; first compound 0.253 µM) | relative viability (Bexarotene + Olaparib; first compound 0.8 µM) | relative viability (Bexarotene + Olaparib; first compound 2.53 µM) | relative viability (Bexarotene + Olaparib; first compound 8 µM) | relative viability (Bexarotene + Pemetrexed; first compound 0.08 µM) | relative viability (Bexarotene + Pemetrexed; first compound 0.253 µM) | relative viability (Bexarotene + Pemetrexed; first compound 0.8 µM) | relative viability (Bexarotene + Pemetrexed; first compound 2.53 µM) | relative viability (Bexarotene + Pemetrexed; first compound 8 µM)
1 | NCI-H3122 | 0.782 | 0.8 | 0.784 | 0.786 | 0.847 | 0.225 | 0.216 | 0.187 | 0.254 | 0.23 | 0.667 | 0.751 | 0.617 | 0.645 | 0.618 | 0.219 | 0.202 | 0.194 | 0.217 | 0.213
2 | PC-3 [JPC-3] | 1.06 | 1.08 | 0.815 | 0.984 | 0.932 | 0.556 | 0.514 | 0.492 | 0.471 | 0.493 | 1.01 | 1.1 | 1.02 | 1.06 | 0.938 | 1.07 | 1.05 | 1.05 | 0.541 | 1
3 | PC-14 | 1.02 | 1.06 | 0.9 | 0.957 | 0.921 | 0.519 | 0.531 | 0.543 | 0.489 | 0.344 | 0.268 | 0.349 | 0.243 | 0.213 | 0.214 | 0.127 | 0.144 | 0.145 | 0.145 | 0.16
4 | RERF-LC-KJ | 0.712 | 0.784 | 0.723 | 0.715 | 0.77 | 1.07 | 1.02 | 0.817 | 0.999 | 0.922 | 0.991 | 0.885 | 0.812 | 0.888 | 0.865 | 0.506 | 0.513 | 0.501 | 0.506 | 0.47
5 | SK-LU-1 | 1.11 | 1.06 |  | 0.97 | 0.988 | 0.419 | 0.394 | 0.326 | 0.393 | 0.37 | 0.557 | 0.43 |  | 0.417 | 0.399 | 1.03 | 1.03 |  | 0.944 | 0.923
6 | SK-MES-1 | 1.06 | 0.948 | 0.961 | 0.893 | 0.956 | 0.347 | 0.352 | 0.314 | 0.313 | 0.267 | 0.798 | 0.832 | 0.696 | 0.628 | 0.564 | 1.04 | 1.12 | 1.08 | 0.961 | 0.735
7 | SW 1573 | 0.706 | 0.454 | 0.51 | 0.454 | 0.422 | 0.362 | 0.327 | 0.378 | 0.354 | 0.288 | 0.537 | 0.461 | 0.499 | 0.445 | 0.41 | 0.911 | 0.814 | 0.897 | 0.751 | 0.847
8 | UMC-11 | 0.971 | 1.02 | 0.954 | 1.04 | 0.955 | 0.308 | 0.355 | 0.316 | 0.267 | 0.339 | 0.387 | 0.425 | 0.525 | 0.353 | 0.37 | 0.77 | 0.764 | 0.786 | 0.77 | 0.803
